The target in assay [1] is T1, Glucocorticoid receptor (Homo sapiens, UniProt P04150).
T1 sequence (P04150 whole entry): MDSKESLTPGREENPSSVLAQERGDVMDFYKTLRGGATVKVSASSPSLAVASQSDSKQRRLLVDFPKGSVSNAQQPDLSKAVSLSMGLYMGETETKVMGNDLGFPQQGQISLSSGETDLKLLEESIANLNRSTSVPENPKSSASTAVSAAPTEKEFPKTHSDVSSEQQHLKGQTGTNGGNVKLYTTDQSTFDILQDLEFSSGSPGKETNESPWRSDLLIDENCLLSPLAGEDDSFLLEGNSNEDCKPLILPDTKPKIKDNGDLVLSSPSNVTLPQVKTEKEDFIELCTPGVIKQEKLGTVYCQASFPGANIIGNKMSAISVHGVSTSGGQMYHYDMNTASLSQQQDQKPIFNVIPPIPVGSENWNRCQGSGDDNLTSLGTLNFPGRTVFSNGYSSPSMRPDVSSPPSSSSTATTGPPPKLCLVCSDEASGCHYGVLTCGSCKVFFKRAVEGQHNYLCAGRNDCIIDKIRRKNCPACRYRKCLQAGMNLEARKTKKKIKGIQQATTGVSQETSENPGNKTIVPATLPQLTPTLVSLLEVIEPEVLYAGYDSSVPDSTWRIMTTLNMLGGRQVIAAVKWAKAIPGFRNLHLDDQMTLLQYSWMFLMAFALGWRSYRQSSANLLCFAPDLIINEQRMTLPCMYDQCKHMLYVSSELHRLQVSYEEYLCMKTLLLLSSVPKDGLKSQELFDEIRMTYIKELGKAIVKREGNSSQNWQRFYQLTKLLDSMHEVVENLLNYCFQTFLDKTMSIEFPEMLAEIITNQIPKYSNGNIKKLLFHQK

Assay [2] addresses T1, Glucocorticoid receptor. The source holds these as a separate data set.
Description: Agonist activity at GR assessed as NF-kappaB-mediated transrepression of secreted placental alkaline phosphatase gene in human A549 cells
The target of assay [3] is T1, Glucocorticoid receptor. The source holds these as a separate data set.
Assay [4] deals with T1, Glucocorticoid receptor. This is another data set of the same source.
Assay [5] addresses T2, Glucocorticoid receptor (Homo sapiens) (UniProt P04150).
T2 sequence (whole entry): T1 sequence (P04150 whole entry)
Kind of assay: Selectivity for MMTV transactivation assay over NF-kappaB transrepression assay for GR agonism in A549 cells. The format is functional, cell-based.

The subject of a further assay is Mus musculus. Nature of the assay: Anti-inflammatory activity against oxazolone-induced ear skin delayed types hypersensitivity model in topically dosed BALB/c mouse. The format is functional.

The source of these data is ChEMBL document CHEMBL1138886, “Dissociated nonsteroidal glucocorticoid receptor modulators; discovery of the agonist trigger in a tetrahydronaphthalene-benzoxazine series” (J Med Chem, 2006).

Regarding `CCC1(CC(O)(C(=O)Nc2ccc3c(=O)onc(C)c3c2)C(F)(F)F)CCCc2cc([N+](=O)[O-])ccc21` (stereo not drawn), the figures for the IC50 at Glucocorticoid receptor [1], at Glucocorticoid receptor [2] and on Glucocorticoid receptor [3] were 7.94 nM, > 10000 nM and 794 nM, respectively.
For `Cc1noc(=O)c2ccc(NC(=O)C(O)(CC3CCCc4c(Cl)cccc43)C(F)(F)F)cc12` (stereo in doubt; 20a), half-maximal inhibition against Glucocorticoid receptor [1] (IC50) required 15.8 nM. That is a double-digit nanomolar value.
As to `Cc1noc(=O)c2ccc(NC(=O)C(O)(CC3CCCc4ccc(F)cc43)C(F)(F)F)cc12` (stereo not drawn), the IC50 (usually the concentration that inhibits the measured activity by half) on Glucocorticoid receptor [1] is 15.8 nM; against Glucocorticoid receptor [2], > 1000 nM.
In the case of `Cc1noc(=O)c2ccc(NC(=O)C(O)(CC3CCCc4c(N)cccc43)C(F)(F)F)cc12` (stereo not drawn), the IC50 was 25.1 nM at Glucocorticoid receptor [1], > 1000 nM against Glucocorticoid receptor [2] and 2000 nM against Glucocorticoid receptor [3].
Turning to `Cc1noc(=O)c2ccc(NC(=O)C(O)(CC3(c4ccccc4)CCCc4ccccc43)C(F)(F)F)cc12` (stereo not drawn), the results for the concentration for half-maximal inhibition (IC50) on Glucocorticoid receptor [1], at Glucocorticoid receptor [2] and against Glucocorticoid receptor [3] were 14.5 nM, > 10000 nM and 1380 nM, respectively.
For the molecule `COc1cccc2c1CCCC2CC(O)(C(=O)Nc1ccc2c(=O)onc(C)c2c1)C(F)(F)F` (stereo not drawn), the results for the half-inhibitory concentration (IC50) at Glucocorticoid receptor [1] and at Glucocorticoid receptor [2] were 12.6 nM and > 1000 nM, respectively.
On to `Cc1noc(=O)c2ccc(NC(=O)C(O)(CC3CCCc4c(Br)cccc43)C(F)(F)F)cc12` (stereo in doubt; 23e), for which 25.1 nM corresponded to half-maximal inhibition against Glucocorticoid receptor [1] (IC50).
`Cc1noc(=O)c2ccc(NC(=O)C(O)(CC3CCCc4c(Br)cccc43)C(F)(F)F)cc12` (stereo in doubt; 23b): the IC50 on Glucocorticoid receptor [1] is 39.8 nM. Against the preceding molecule, the IC50 is about 1.6-fold higher.
For the molecule `Cc1cccc2c1CCCC2CC(O)(C(=O)Nc1ccc2c(=O)onc(C)c2c1)C(F)(F)F` (stereo in doubt; 19b), the IC50 is 3.16 nM at Glucocorticoid receptor [1], > 1000 nM against Glucocorticoid receptor [2] and 200 nM on Glucocorticoid receptor [3].
As to `Cc1noc(=O)c2ccc(NC(=O)C(O)(CC3(C)CCCc4ccccc43)C(F)(F)F)cc12` (stereo in doubt; 35d), the IC50 against Glucocorticoid receptor [1] is 10 nM; against Glucocorticoid receptor [2], 20 nM; against Glucocorticoid receptor [3], 398 nM. The EC50 – broadly, the concentration giving half of the maximal effect – on Glucocorticoid receptor [4] was > 10000 nM.
On to `Cc1noc(=O)c2ccc(NC(=O)C(O)(CC3(C)CCCc4ccccc43)C(F)(F)F)cc12` (stereo in doubt; 35a), for which the IC50 on Glucocorticoid receptor [1] was 316 nM; on Glucocorticoid receptor [2], > 10000 nM.
Regarding `Cc1noc(=O)c2ccc(NC(=O)C(O)(CC3(C4CCCCC4)CCCc4ccccc43)C(F)(F)F)cc12` (stereo not drawn), the figures for the IC50 on Glucocorticoid receptor [1], on Glucocorticoid receptor [2] and against Glucocorticoid receptor [3] were 8.51 nM, 3.31 nM and 200 nM, respectively. In addition, at Glucocorticoid receptor [4], the EC50 is 20.9 nM.
With `Cc1noc(=O)c2ccc(NC(=O)C(O)(CC3CCCc4c(Br)cccc43)C(F)(F)F)cc12` (stereo in doubt; 23f), the results for the IC50 on Glucocorticoid receptor [1] and against Glucocorticoid receptor [2] were 631 nM and > 1000 nM, respectively.
`CCCC1(CC(O)(C(=O)Nc2ccc3c(=O)onc(C)c3c2)C(F)(F)F)CCCc2ccccc21` (stereo not drawn): the values for the IC50 against Glucocorticoid receptor [1], at Glucocorticoid receptor [2] and at Glucocorticoid receptor [3] were 5.62 nM, 4.68 nM and 25.1 nM, respectively. The molecule also displayed an Efficacy in assay [5] of 67%. This molecule gave an EC50 at Glucocorticoid receptor [4] of 20 nM.
Turning to `Cc1noc(=O)c2ccc(NC(=O)C(O)(CC3(C4CCC4)CCCc4ccccc43)C(F)(F)F)cc12` (stereo not drawn), the IC50 at Glucocorticoid receptor [1] was 9.55 nM; at Glucocorticoid receptor [2], 4.9 nM; on Glucocorticoid receptor [3] it was 166 nM. At Glucocorticoid receptor [4], the EC50 is 17.4 nM.
For `Cc1cccc2c1CCCC2CC(O)(C(=O)Nc1ccc2c(=O)onc(C)c2c1)C(F)(F)F` (stereo in doubt; 19a), the IC50 against Glucocorticoid receptor [1] was 20 nM; against Glucocorticoid receptor [3], 794 nM.
Turning to `Cc1noc(=O)c2ccc(NC(=O)C(O)(CC3CCCc4cc(F)ccc43)C(F)(F)F)cc12` (stereo not drawn), the IC50 at Glucocorticoid receptor [1] was 12.6 nM; against Glucocorticoid receptor [2], > 1000 nM.
Regarding `Cc1noc(=O)c2ccc(NC(=O)C(O)(CC3CCCc4c(Br)cccc43)C(F)(F)F)cc12` (stereo in doubt; 23a), the IC50 at Glucocorticoid receptor [1] was 15.8 nM; against Glucocorticoid receptor [3] it was 794 nM.
Molecule `C[C@@H]1C[C@H]2[C@@H]3CCC4=CC(=O)C=C[C@]4(C)[C@@]3(F)[C@@H](O)C[C@]2(C)[C@@]1(O)C(=O)CO` [DEXAMETHASONE] returned an ED50 in the assay with Mus musculus of 0.27 µg.
For the molecule `CCC1(CC(O)(C(=O)Nc2ccc3c(=O)onc(C)c3c2)C(F)(F)F)CCOc2ccccc21` (stereo in doubt; 38), the results for the IC50 against Glucocorticoid receptor [1] and at Glucocorticoid receptor [2] were 11.7 nM and > 10000 nM, respectively.
On the same counts, the results for `Cc1noc(=O)c2ccc(NC(=O)C(O)(CC3CCCc4c(C#N)cccc43)C(F)(F)F)cc12` (stereo not drawn) are 15.8 nM and > 1000 nM.
As for `CCC1(CC(O)(C(=O)Nc2ccc3c(=O)onc(C)c3c2)C(F)(F)F)CCOc2ccccc21` (stereo in doubt; 37), at Glucocorticoid receptor [1], the IC50 is 16.6 nM.
Turning to `Cc1noc(=O)c2ccc(NC(=O)C(O)(CC3CCCc4c3cccc4[N+](=O)[O-])C(F)(F)F)cc12` (stereo not drawn), the IC50 was 12.6 nM against Glucocorticoid receptor [1] and > 1000 nM against Glucocorticoid receptor [2].
Consider `Cc1noc(=O)c2ccc(NC(=O)C(O)(CC3(C)CCCc4ccccc43)C(F)(F)F)cc12` (stereo in doubt; 35b), for which the IC50 against Glucocorticoid receptor [1] is 7.94 nM; on Glucocorticoid receptor [2] it was 1260 nM.
Turning to `Cc1noc(=O)c2ccc(NC(=O)C(O)(CC3(C(C)C)CCCc4ccccc43)C(F)(F)F)cc12` (stereo not drawn), the IC50 is 4.79 nM against Glucocorticoid receptor [1], 2.95 nM on Glucocorticoid receptor [2] and 129 nM against Glucocorticoid receptor [3]. In assay [5], this molecule showed an Efficacy of 34%. On Glucocorticoid receptor [4], this molecule gave a 50% effective concentration (EC50) of 18.6 nM.
In the case of `Cc1noc(=O)c2ccc(NC(=O)C(O)(CC3CCCc4cccc(F)c43)C(F)(F)F)cc12` (stereo not drawn), the half-inhibitory concentration (IC50) against Glucocorticoid receptor [1] was 31.6 nM; against Glucocorticoid receptor [2] it was > 1000 nM.
The molecule `Cc1noc(=O)c2ccc(NC(=O)C(O)(CC3CCCc4c(Br)cccc43)C(F)(F)F)cc12` (stereo in doubt; 23c) gave an IC50 at Glucocorticoid receptor [1] of 6.31 nM.
As for `CCC1(CC(O)(C(=O)Nc2ccc3c(=O)onc(C)c3c2)C(F)(F)F)CCCCc2ccccc21` (stereo not drawn), the values for the IC50 on Glucocorticoid receptor [1] and at Glucocorticoid receptor [2] were 10 nM and 7.94 nM, respectively. Besides, the EC50 at Glucocorticoid receptor [4] is > 10000 nM.
Turning to `CCC1(CC(O)(C(=O)Nc2ccc3c(=O)onc(C)c3c2)C(F)(F)F)CCCc2ccc([N+](=O)[O-])cc21` (stereo not drawn), the half-inhibitory concentration (IC50) is 6.31 nM at Glucocorticoid receptor [1], > 10000 nM against Glucocorticoid receptor [2] and 316 nM against Glucocorticoid receptor [3].
In the case of `Cc1noc(=O)c2ccc(NC(=O)C(O)(CC3CCCc4cc([N+](=O)[O-])ccc43)C(F)(F)F)cc12` (stereo not drawn), the IC50 on Glucocorticoid receptor [1] is 126 nM; against Glucocorticoid receptor [2], > 1000 nM.
Take `CCC1(CC(O)(C(=O)Nc2ccc3c(=O)onc(C)c3c2)C(F)(F)F)CCCc2c([N+](=O)[O-])cccc21` (stereo not drawn): the IC50 is 5.01 nM against Glucocorticoid receptor [1], > 10000 nM against Glucocorticoid receptor [2] and 251 nM on Glucocorticoid receptor [3].
Consider `Cc1noc(=O)c2ccc(NC(=O)C(O)(CC3(CC(C)C)CCCc4ccccc43)C(F)(F)F)cc12` (stereo not drawn), for which the EC50 on Glucocorticoid receptor [4] is > 1000 nM.
Consider `CCCCC1(CC(O)(C(=O)Nc2ccc3c(=O)onc(C)c3c2)C(F)(F)F)CCCc2ccccc21` (stereo not drawn), for which the values for the IC50 at Glucocorticoid receptor [1] and on Glucocorticoid receptor [2] were 3.09 nM and 6.61 nM, respectively. Further, the 50% effective concentration (EC50) at Glucocorticoid receptor [4] was > 1000 nM.
As to `Cc1noc(=O)c2ccc(NC(=O)C(O)(CC3(C(C)(C)C)CCCc4ccccc43)C(F)(F)F)cc12` (stereo not drawn), the IC50 is 11.5 nM against Glucocorticoid receptor [1], > 10000 nM at Glucocorticoid receptor [2] and 776 nM on Glucocorticoid receptor [3].
With `Cc1noc(=O)c2ccc(NC(=O)C(O)(CC3CCCc4c(Cl)cccc43)C(F)(F)F)cc12` (stereo in doubt; 20b), the IC50 is 5.01 nM against Glucocorticoid receptor [1], > 1000 nM on Glucocorticoid receptor [2] and 398 nM against Glucocorticoid receptor [3].
Turning to `Cc1noc(=O)c2ccc(NC(=O)C(O)(CC3CCCc4ccc([N+](=O)[O-])cc43)C(F)(F)F)cc12` (stereo not drawn), the results for the IC50 against Glucocorticoid receptor [1] and at Glucocorticoid receptor [2] were 20 nM and > 1000 nM, respectively.
Take `CCC1(CC(O)(C(=O)Nc2ccc3c(=O)onc(C)c3c2)C(F)(F)F)CCCc2ccccc21` (stereo not drawn): the IC50 on Glucocorticoid receptor [1] was 6.17 nM; on Glucocorticoid receptor [2], 5.01 nM; against Glucocorticoid receptor [3] it was 200 nM. For the same molecule, the ED50 with Mus musculus was determined as 5 µg. The molecule also gave an EC50 on Glucocorticoid receptor [4] of 9.12 nM.
As for `Cc1noc(=O)c2ccc(NC(=O)C(O)(CC3(C)CCCc4ccccc43)C(F)(F)F)cc12` (stereo in doubt; 35c), the figures for the concentration for half-maximal inhibition (IC50) at Glucocorticoid receptor [1] and against Glucocorticoid receptor [2] were 251 nM and > 10000 nM, respectively.
Regarding `Cc1noc(=O)c2ccc(NC(=O)C(O)(CC3CCCc4c(F)cccc43)C(F)(F)F)cc12` (stereo not drawn), the IC50 is 15.8 nM on Glucocorticoid receptor [1], > 1000 nM against Glucocorticoid receptor [2] and 501 nM against Glucocorticoid receptor [3].
Turning to `Cc1noc(=O)c2ccc(NC(=O)C(O)(CC3(C4CC4)CCCc4ccccc43)C(F)(F)F)cc12` (stereo not drawn), the figures for the IC50 against Glucocorticoid receptor [1], against Glucocorticoid receptor [2] and against Glucocorticoid receptor [3] were 4.68 nM, 9.55 nM and 204 nM, respectively. For the same molecule, at Glucocorticoid receptor [4], the EC50 is 39.8 nM.
In the case of `Cc1noc(=O)c2ccc(NC(=O)C(O)(CC3CCCc4ccccc43)C(F)(F)F)cc12` (stereo not drawn), the IC50 is 7.94 nM on Glucocorticoid receptor [1] and > 1000 nM at Glucocorticoid receptor [2].
